The supplement of paper PMC10307832

Key:
Experiment in all cases: relative viability (nuclei count vs DMSO), 5 days (fraction); higher = more cells survive
[1] = compound: COc1cc(N2CCC(N3CCN(C)CC3)CC2)ccc1Nc1ncc(Cl)c(Nc2ccccc2S(=O)(=O)C(C)C)n1 [NVP-TAE684] + CC(=O)c1c(C)c2cnc(Nc3ccc(N4CCNCC4)cn3)nc2n(C2CCCC2)c1=O [Palbociclib] (partner 0.5 µM)
Summary of the method: (§1)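 Nuclei were stained with Hoechst during a one-step fixation (final 0.05% Triton X-100, 1% formaldehyde, 1 ug/ml Hoechst) carried out 5 days after dosing, then counted on 4× images. The cells, lung cancer lines in 1536-well plates, had been dosed by pin tool the day after seeding with one drug alone or a fixed anchor-drug dose plus five library-drug doses (not always all listed) in √10 steps. Relative viability is the nuclei count in treated wells divided by that in vehicle wells, and each value is the median of duplicate plates.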

[2] = compound: COc1cc(N2CCC(N3CCN(C)CC3)CC2)ccc1Nc1ncc(Cl)c(Nc2ccccc2S(=O)(=O)C(C)C)n1 [NVP-TAE684] + CC(C)C[C@H](NC(=O)[C@H](Cc1ccccc1)NC(=O)c1cnccn1)B(O)O [Bortezomib] (partner 0.002 µM)
Summary of the method: as §1

[3] = compound: COc1cc(N2CCC(N3CCN(C)CC3)CC2)ccc1Nc1ncc(Cl)c(Nc2ccccc2S(=O)(=O)C(C)C)n1 [NVP-TAE684] + C[C@@H](Oc1cc(-c2cnn(C3CCNCC3)c2)cnc1N)c1c(Cl)ccc(F)c1Cl [Crizotinib] (partner 1 µM)
Summary of the method: as §1

[4] = compound: COc1cc2/c(=N/c3ccc(Br)cc3F)nc[nH]c2cc1OCC1CCN(C)CC1 [Vandetanib] + CC(C)C[C@H](NC(=O)[C@H](Cc1ccccc1)NC(=O)c1cnccn1)B(O)O [Bortezomib] (partner 0.002 µM)
Summary of the method: as §1

[5] = compound: COc1cc2/c(=N/c3ccc(Br)cc3F)nc[nH]c2cc1OCC1CCN(C)CC1 [Vandetanib] + COc1cccc2cc(-c3nc([C@H]4CC[C@H](C(=O)O)CC4)n4ncnc(N)c34)[nH]c12 [OSI-027] (partner 0.5 µM)
Summary of the method: as §1

| Cell Line | relative viability ([1]; first compound 0.2 µM) | relative viability ([1]; first compound 0.6325 µM) | relative viability ([1]; first compound 2 µM) | relative viability ([2]; first compound 0.6325 µM) | relative viability ([2]; first compound 2 µM) | relative viability ([3]; first compound 0.2 µM) | relative viability ([3]; first compound 0.6325 µM) | relative viability ([3]; first compound 2 µM) | relative viability ([4]; first compound 0.02 µM) | relative viability ([4]; first compound 0.06325 µM) | relative viability ([4]; first compound 0.2 µM) | relative viability ([4]; first compound 0.6325 µM) | relative viability ([4]; first compound 2 µM) | relative viability ([5]; first compound 0.02 µM) | relative viability ([5]; first compound 0.06325 µM) | relative viability ([5]; first compound 0.2 µM) | relative viability ([5]; first compound 0.6325 µM) | relative viability ([5]; first compound 2 µM) | relative viability ([2]; first compound 0.2 µM) |
| --- | --- | --- | --- | --- | --- | --- | --- | --- | --- | --- | --- | --- | --- | --- | --- | --- | --- | --- | --- |
| NCI-H1755 | 0.441 | 0.472 | 0.401 | 0.949 | 0.838 | 0.991 | 0.893 | 0.681 | 0.998 | 1.04 | 1.07 | 1 | 0.959 | 0.688 | 0.649 | 0.757 | 0.689 | 0.672 |  |
| SK-LU-1 | 0.352 | 0.388 | 0.333 | 1.08 | 1.01 | 0.972 | 0.81 | 0.412 | 1.23 | 1.01 | 1.21 | 1.39 | 0.467 | 0.332 | 0.199 | 0.37 | 0.348 | 0.301 | 1.21 |
| NCI-H2126 | 0.34 | 0.329 | 0.327 | 1.07 | 0.958 | 1.08 | 1.07 | 0.726 | 1.09 | 1.07 | 1.06 | 1.08 | 1.06 | 0.694 | 0.661 | 0.64 | 0.627 | 0.648 | 1.09 |
| NCI-H650 | 0.313 | 0.319 | 0.318 | 0.562 | 0.614 | 0.799 | 0.516 | 0.399 | 0.757 | 0.877 | 0.705 | 0.862 | 0.596 | 0.491 | 0.531 |  | 0.521 | 0.447 | 0.784 |
| 201T | 0.358 | 0.333 | 0.312 | 1.01 | 1.11 | 0.972 | 1.01 | 0.889 | 1.03 | 1.08 | 1.13 | 1.03 | 1.06 | 0.69 | 0.664 | 0.719 |  | 0.672 | 1.11 |
| LU99A | 0.373 | 0.429 | 0.254 | 1.1 | 0.653 | 0.651 | 0.576 | 0.262 | 1.14 | 1.22 | 1.11 | 1.07 | 1.07 | 0.267 | 0.314 | 0.267 | 0.264 | 0.317 | 1.29 |
| NCI-H647 | 0.352 | 0.337 | 0.223 | 1.11 | 0.77 | 0.959 | 0.983 | 0.172 | 0.962 | 0.947 | 1.05 | 0.817 | 0.804 | 0.572 | 0.554 | 0.73 | 0.596 | 0.674 | 1.38 |
| LC-2-ad | 0.43 | 0.482 | 0.32 | 0.9 | 0.605 | 0.419 | 0.433 | 0.315 | 0.708 | 0.984 | 0.769 | 0.884 | 0.322 | 0.848 | 0.761 | 0.777 | 0.675 | 0.446 | 1.13 |
| NCI-H520 | 0.227 | 0.267 | 0.152 | 0.672 | 0.321 | 0.668 | 0.651 | 0.348 | 0.608 | 0.623 | 0.527 | 0.45 | 0.569 | 0.219 | 0.226 | 0.311 | 0.268 | 0.271 |  |
| NCI-H1975 | 0.591 | 0.589 | 0.37 | 0.362 | 0.21 | 0.978 | 1.1 | 0.227 | 0.359 | 0.35 | 0.376 | 0.355 | 0.383 | 0.719 | 0.728 | 0.77 | 0.683 | 0.612 | 0.359 |
